Source: PMC8429728, “TNK1 is a ubiquitin-binding and 14-3-3-regulated kinase that can be targeted to block tumor growth” (Nature Communications, 2021)
Like-named read-outs stand apart in the source and are kept apart here.

Tests used:
Test in all cases: biochemical
Design in all cases: Reaction Biology 371-kinase panel at Km ATP, per cent enzyme activity relative to DMSO, single dose in duplicate
MST4 = molecular target: T1, MST4 (Homo sapiens, UniProt Q9P289); conditions: duplicate measurements, Km ATP
T1 construct: gene STK26
How it was run: (§1)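 Activity of each kinase, normalised to DMSO-treated controls, served as the read-out. The inhibitor was tested at 300 nM against 371 kinases in vitro. Curves fitted by variable-slope sigmoidal dose-response, constrained to a bottom of 0, gave IC50.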

ULK3 = ULK3 (Homo sapiens, UniProt Q6PHR2); conditions: duplicate measurements, Km ATP
How it was run: as §1

PKCa = molecular target: T2, PKCa (Homo sapiens, UniProt P17252); conditions: duplicate measurements, Km ATP
T2 construct: gene PRKCA
How it was run: as §1

SIK2 = SIK2 (Homo sapiens, UniProt Q9H0K1); conditions: duplicate measurements, Km ATP
How it was run: as §1

PAK2 = PAK2 (Homo sapiens, UniProt Q13177); conditions: duplicate measurements, Km ATP; read-out: % Enzyme Activity (relative to DMSO controls) / TP-0005801 (0.3µM) / Data 1
How it was run: as §1

STK38/NDR1 = STK38/NDR1 (Homo sapiens, UniProt Q15208); conditions: duplicate measurements, Km ATP
How it was run: as §1

TTBK2 = TTBK2 (Homo sapiens, UniProt Q6IQ55); conditions: duplicate measurements, Km ATP
How it was run: as §1

CTK/MATK = CTK/MATK (Homo sapiens, UniProt P42679); conditions: duplicate measurements, Km ATP
How it was run: as §1

ITK = ITK (Homo sapiens, UniProt Q08881); conditions: duplicate measurements, Km ATP
How it was run: as §1

GRK6 = GRK6 (Homo sapiens, UniProt P43250); conditions: duplicate measurements, Km ATP
How it was run: as §1

TSSK3/STK22C = TSSK3/STK22C (Homo sapiens, UniProt Q96PN8); conditions: duplicate measurements, Km ATP
How it was run: as §1

NEK9 = NEK9 (Homo sapiens, UniProt Q8TD19); conditions: duplicate measurements, Km ATP
How it was run: as §1

SNARK/NUAK2 = SNARK/NUAK2 (Homo sapiens, UniProt Q9H093); conditions: duplicate measurements, Km ATP; read-out: % Enzyme Activity (relative to DMSO controls) / TP-0005801 (0.3µM) / Data 1
How it was run: as §1

ROCK1 = ROCK1 (Homo sapiens, UniProt Q13464); conditions: duplicate measurements, Km ATP
How it was run: as §1

CDK5/p35 = molecular target: T3, CDK5/p35 (Homo sapiens, UniProt Q00535); conditions: duplicate measurements, Km ATP
T3 construct: p35
How it was run: as §1

PKCd = molecular target: T4, PKCd (Homo sapiens, UniProt Q05655); conditions: duplicate measurements, Km ATP
T4 construct: gene PRKCD
How it was run: as §1

TAOK3/JIK = TAOK3/JIK (Homo sapiens, UniProt Q9H2K8); conditions: duplicate measurements, Km ATP
How it was run: as §1

MEK3 = molecular target: T5, MEK3 (Homo sapiens, UniProt P46734); conditions: duplicate measurements, Km ATP
T5 construct: gene MAP2K3
How it was run: as §1

NEK5 = NEK5 (Homo sapiens, UniProt Q6P3R8); conditions: duplicate measurements, Km ATP
How it was run: as §1

CAMK2b = CAMK2b (Homo sapiens, UniProt Q13554); conditions: duplicate measurements, Km ATP
How it was run: as §1

[1] = read-out: % Enzyme Activity (relative to DMSO controls) / TP-0005801 (0.3µM) / Data 1
[2] = read-out: % Enzyme Activity (relative to DMSO controls) / TP-0005801 (0.3µM) / Data 2

ROCK1, sequence (Q13464 whole entry): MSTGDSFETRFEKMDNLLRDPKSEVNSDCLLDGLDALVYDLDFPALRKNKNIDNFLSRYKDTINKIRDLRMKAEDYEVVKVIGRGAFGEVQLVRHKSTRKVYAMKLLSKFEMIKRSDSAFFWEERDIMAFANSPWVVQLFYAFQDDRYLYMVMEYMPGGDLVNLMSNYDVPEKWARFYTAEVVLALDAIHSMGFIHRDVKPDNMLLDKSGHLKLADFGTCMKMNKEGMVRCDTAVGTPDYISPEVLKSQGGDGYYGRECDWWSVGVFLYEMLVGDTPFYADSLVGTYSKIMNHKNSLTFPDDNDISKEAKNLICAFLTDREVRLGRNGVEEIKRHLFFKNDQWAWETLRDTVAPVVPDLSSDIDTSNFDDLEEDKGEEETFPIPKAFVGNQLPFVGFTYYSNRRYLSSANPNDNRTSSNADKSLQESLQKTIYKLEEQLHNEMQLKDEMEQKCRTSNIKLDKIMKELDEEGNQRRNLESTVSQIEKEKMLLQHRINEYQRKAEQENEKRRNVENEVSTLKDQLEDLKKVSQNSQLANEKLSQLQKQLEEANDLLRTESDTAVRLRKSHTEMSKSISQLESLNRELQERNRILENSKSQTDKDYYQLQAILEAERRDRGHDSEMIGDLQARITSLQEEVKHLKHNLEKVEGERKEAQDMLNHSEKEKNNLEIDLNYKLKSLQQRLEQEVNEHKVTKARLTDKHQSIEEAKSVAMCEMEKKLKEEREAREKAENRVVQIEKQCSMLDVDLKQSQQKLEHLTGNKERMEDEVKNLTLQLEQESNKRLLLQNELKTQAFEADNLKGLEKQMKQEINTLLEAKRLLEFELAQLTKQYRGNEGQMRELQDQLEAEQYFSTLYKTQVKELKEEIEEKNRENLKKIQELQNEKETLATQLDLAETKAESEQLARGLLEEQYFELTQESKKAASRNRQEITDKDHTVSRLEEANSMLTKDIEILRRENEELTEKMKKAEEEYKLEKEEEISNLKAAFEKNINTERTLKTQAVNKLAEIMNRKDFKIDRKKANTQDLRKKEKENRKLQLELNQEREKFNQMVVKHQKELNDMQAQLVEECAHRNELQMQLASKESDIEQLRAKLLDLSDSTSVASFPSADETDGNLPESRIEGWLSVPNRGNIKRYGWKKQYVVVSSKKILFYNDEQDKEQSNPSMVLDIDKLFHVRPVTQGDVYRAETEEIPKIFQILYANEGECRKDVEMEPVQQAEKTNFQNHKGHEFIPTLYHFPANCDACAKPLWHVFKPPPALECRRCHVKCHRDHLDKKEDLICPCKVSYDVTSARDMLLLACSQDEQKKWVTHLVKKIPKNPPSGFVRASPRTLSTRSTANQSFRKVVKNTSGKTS
STK38/NDR1, sequence (Q15208 whole entry): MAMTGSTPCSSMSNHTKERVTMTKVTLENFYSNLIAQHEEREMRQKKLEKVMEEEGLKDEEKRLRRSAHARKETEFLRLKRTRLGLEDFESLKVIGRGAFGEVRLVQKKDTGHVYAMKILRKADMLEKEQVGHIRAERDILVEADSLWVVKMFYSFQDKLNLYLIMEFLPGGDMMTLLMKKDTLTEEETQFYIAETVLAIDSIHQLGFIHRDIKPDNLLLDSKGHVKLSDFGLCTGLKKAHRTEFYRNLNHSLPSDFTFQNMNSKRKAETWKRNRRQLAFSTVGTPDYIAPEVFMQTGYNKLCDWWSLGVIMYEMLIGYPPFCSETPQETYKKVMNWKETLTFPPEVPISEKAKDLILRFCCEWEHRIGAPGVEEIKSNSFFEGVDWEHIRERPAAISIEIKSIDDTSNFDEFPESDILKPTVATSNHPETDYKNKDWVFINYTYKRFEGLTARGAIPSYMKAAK
ITK, sequence (Q08881 whole entry): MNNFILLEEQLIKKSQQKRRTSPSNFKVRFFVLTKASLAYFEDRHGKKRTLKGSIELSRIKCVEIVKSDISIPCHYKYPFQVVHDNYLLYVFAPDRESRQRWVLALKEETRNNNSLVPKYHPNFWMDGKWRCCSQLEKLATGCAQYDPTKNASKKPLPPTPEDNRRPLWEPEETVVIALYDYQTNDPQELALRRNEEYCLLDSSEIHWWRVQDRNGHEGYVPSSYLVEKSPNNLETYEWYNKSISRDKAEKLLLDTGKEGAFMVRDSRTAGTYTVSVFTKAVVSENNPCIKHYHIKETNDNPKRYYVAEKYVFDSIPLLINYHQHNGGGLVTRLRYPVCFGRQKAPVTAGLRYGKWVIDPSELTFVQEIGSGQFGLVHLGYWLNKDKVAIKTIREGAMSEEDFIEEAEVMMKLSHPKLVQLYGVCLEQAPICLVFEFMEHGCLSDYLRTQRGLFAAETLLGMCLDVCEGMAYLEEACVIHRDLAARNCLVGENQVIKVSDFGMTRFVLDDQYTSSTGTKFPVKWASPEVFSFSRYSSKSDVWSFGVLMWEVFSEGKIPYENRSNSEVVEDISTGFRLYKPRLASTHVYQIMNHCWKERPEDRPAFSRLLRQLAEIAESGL
T1 sequence (Q9P289 whole entry): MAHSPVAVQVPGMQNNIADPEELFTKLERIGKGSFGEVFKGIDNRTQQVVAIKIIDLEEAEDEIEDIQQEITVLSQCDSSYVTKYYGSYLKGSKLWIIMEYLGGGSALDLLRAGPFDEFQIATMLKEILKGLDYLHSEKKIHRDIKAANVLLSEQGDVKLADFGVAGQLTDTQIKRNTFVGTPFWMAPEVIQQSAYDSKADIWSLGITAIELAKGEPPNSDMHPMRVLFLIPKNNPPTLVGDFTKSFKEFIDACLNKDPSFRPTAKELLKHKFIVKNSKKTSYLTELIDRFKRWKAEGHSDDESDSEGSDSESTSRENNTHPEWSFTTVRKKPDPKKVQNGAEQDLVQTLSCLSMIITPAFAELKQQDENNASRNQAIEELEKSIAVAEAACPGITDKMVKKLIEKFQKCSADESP
SIK2, sequence (Q9H0K1 whole entry): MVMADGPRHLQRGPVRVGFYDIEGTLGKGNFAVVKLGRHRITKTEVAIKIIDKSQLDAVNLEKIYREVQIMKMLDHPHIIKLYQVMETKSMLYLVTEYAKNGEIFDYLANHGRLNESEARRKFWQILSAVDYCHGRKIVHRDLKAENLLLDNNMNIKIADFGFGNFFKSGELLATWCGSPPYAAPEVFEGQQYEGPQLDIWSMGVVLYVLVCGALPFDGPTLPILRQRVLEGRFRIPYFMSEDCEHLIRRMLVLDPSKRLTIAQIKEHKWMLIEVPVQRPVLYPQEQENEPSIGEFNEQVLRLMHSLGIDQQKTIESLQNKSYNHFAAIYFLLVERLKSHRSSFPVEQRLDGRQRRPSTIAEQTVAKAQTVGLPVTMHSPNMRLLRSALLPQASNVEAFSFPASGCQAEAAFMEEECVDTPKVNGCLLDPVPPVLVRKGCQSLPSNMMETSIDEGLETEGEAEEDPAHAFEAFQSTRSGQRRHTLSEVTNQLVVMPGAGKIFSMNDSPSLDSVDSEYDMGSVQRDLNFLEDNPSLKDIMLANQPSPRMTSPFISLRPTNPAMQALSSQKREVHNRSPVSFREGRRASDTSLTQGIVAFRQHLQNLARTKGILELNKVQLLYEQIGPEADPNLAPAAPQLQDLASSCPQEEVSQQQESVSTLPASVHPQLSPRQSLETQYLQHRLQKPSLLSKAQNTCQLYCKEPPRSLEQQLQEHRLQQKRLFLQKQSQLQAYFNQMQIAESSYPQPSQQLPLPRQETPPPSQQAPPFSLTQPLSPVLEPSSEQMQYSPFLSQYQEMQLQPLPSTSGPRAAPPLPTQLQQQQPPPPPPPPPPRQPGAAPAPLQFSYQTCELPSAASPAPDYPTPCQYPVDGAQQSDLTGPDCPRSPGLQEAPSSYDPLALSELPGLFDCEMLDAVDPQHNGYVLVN
ULK3, sequence (Q6PHR2 whole entry): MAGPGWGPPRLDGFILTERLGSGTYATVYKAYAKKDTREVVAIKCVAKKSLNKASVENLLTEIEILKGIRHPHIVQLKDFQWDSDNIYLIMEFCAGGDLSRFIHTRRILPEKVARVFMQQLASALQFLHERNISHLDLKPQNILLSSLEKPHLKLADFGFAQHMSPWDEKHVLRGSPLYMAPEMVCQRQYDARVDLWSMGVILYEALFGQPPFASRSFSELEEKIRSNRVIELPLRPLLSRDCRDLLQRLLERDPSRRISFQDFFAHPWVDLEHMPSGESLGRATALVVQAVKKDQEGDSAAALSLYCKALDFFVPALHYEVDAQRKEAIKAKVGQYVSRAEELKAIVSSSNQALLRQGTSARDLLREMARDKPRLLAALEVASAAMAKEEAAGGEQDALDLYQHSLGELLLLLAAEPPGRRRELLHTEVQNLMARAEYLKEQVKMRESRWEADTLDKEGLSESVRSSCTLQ

COc1cc(N2CCN(C)CC2)c(C)cc1Nc1ncc(Br)c(Nc2cccnc2N(C)C)n1 [TP-5801]
remaining activity at 0.3 µM (MST4; [1]): 101% | remaining activity at 0.3 µM (MST4; [2]): 92.7% | remaining activity at 0.3 µM (ULK3; [1]): 43.8% | remaining activity at 0.3 µM (ULK3; [2]): 40.1% | remaining activity at 0.3 µM (PKCa; [1]): 98.6% | remaining activity at 0.3 µM (PKCa; [2]): 98% | remaining activity at 0.3 µM (SIK2; [1]): 79.4% | remaining activity at 0.3 µM (SIK2; [2]): 78.3% | remaining activity at 0.3 µM (PAK2): 104% | remaining activity at 0.3 µM (STK38/NDR1; [1]): 38.8% | remaining activity at 0.3 µM (STK38/NDR1; [2]): 38.7% | remaining activity at 0.3 µM (TTBK2; [1]): 90.3% | remaining activity at 0.3 µM (TTBK2; [2]): 83.1% | remaining activity at 0.3 µM (CTK/MATK; [1]): 108% | remaining activity at 0.3 µM (CTK/MATK; [2]): 106% | remaining activity at 0.3 µM (ITK; [1]): 107% | remaining activity at 0.3 µM (ITK; [2]): 103% | remaining activity at 0.3 µM (GRK6; [1]): 86.9% | remaining activity at 0.3 µM (GRK6; [2]): 83.9% | remaining activity at 0.3 µM (TSSK3/STK22C; [1]): 97.1% | remaining activity at 0.3 µM (TSSK3/STK22C; [2]): 94.6% | remaining activity at 0.3 µM (NEK9; [1]): 69.6% | remaining activity at 0.3 µM (NEK9; [2]): 68.6% | remaining activity at 0.3 µM (SNARK/NUAK2): 30.2% | remaining activity at 0.3 µM (ROCK1; [1]): 99.8% | remaining activity at 0.3 µM (ROCK1; [2]): 96.7% | remaining activity at 0.3 µM (CDK5/p35; [1]): 99.5% | remaining activity at 0.3 µM (CDK5/p35; [2]): 99.1% | remaining activity at 0.3 µM (PKCd; [1]): 113% | remaining activity at 0.3 µM (PKCd; [2]): 99.7% | remaining activity at 0.3 µM (TAOK3/JIK; [1]): 88.2% | remaining activity at 0.3 µM (TAOK3/JIK; [2]): 86.8% | remaining activity at 0.3 µM (MEK3; [1]): 174% | remaining activity at 0.3 µM (MEK3; [2]): 173% | remaining activity at 0.3 µM (NEK5; [1]): 98.5% | remaining activity at 0.3 µM (NEK5; [2]): 96.9% | remaining activity at 0.3 µM (CAMK2b; [1]): 64.8% | remaining activity at 0.3 µM (CAMK2b; [2]): 64%
